Laboratory results published in patent publication US12404239B2, “Modulators of BCL6 as ligand directed degraders” (Celgene Corporation, priority 2022, dated 2025).

Target: T1, BCL6 (Homo sapiens, UniProt P41182)
T1 construct: HiBiT-tag knocked into endogenous BCL6 locus using CRISPR; endogenous in cells; host or cells: DHL-4_BCL6_HiBiT cells (CRISPR knock-in)
Assay: BCL6_HiBiT degradation assay (2 h)
Type: cell-based
Details: DHL-4_BCL6_HiBiT cells; for Percent BCL6 remaining at maximal degradation (Ycon): read-out: YCon (% remaining maximal effect)
In short: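 DHL-4 cells carrying CRISPR HiBiT knock-in at endogenous BCL6, treated 2 h at 37 °C with 10-point 3-fold dilutions from 1-10 μM. BCL6 level read by Nano-Glo HiBiT lytic luminescence normalized to DMSO; four-parameter fit gives degradation EC50 and Yconstant (% remaining at maximal effect).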

| SMILES | Percent BCL6 remaining at maximal degradation (Ycon) [%] | YCon (% remaining maximal effect) |
| --- | --- | --- |
| Cn1nc(C2CCC(=O)NC2=O)c2ccc(N3CCC(Nc4ncc(Cl)c(Nc5ccc6c(c5)N(CCC(C)(C)O)C(=O)C6)n4)CC3)cc21 (stereo not shown) [Example 8, 3-(6-(4-((5-chloro-4-((1-(3-hydroxy-3-methylbutyl)-2-oxoindolin-6-yl)amino)pyrimidin-2-yl)amino)piperidin-1-yl)-1-methyl-1H-indazol-3-yl)piperidine-2,6-dione] | > 60 | – |
| C[C@@H]1CN(c2ncc(Cl)c(Nc3cnc4c(c3)CC(=O)N4C)n2)CC[C@H]1Nc1ccc2c(N3CCC(=O)NC3=O)nn(C)c2c1 [Example 143, 1-(6-(((3R,4R)-1-(5-chloro-4-((1-methyl-2-oxo-2,3-dihydro-1H-pyrrolo[2,3-b]pyridin-5-yl)amino)pyrimidin-2-yl)-3-methylpiperidin-4-yl)amino)-1-methyl-1H-indazol-3-yl)dihydropyrimidine-2,4(1H,3H)-dione] | < 20 | – |
| CN1C(=O)Cc2cc(Nc3nc(N4CCC(Nc5ccc6c(C7CCC(=O)NC7=O)nn(C)c6c5)CC4)ncc3C#N)ccc21 (stereo not shown) [Example 36, 2-(4-((3-(2,6-dioxopiperidin-3-yl)-1-methyl-1H-indazol-6-yl)amino)piperidin-1-yl)-4-((1-methyl-2-oxoindolin-5-yl)amino)pyrimidine-5-carbonitrile] | > 60 | – |
| C[C@@H]1CN(c2ncc(C#N)c(Nc3ccc4c(c3F)CC(=O)N4C)n2)CC[C@H]1Nc1ccc2c(C3CCC(=O)NC3=O)nn(C)c2c1 (stereo partly drawn) [Example 118, 2-((3R,4R)-4-((3-(2,6-dioxopiperidin-3-yl)-1-methyl-1H-indazol-6-yl)amino)-3-methylpiperidin-1-yl)-4-((4-fluoro-1-methyl-2-oxoindolin-5-yl)amino)pyrimidine-5-carbonitrile] | < 20 | – |
| CN1C(=O)Cc2cc(Nc3nc(N4CC[C@H](Nc5ccc6c(C7CCC(=O)NC7=O)nn(C)c6c5)[C@@H](F)C4)ncc3Cl)ccc21 (stereo partly drawn) [Example 42, 3-(6-(((3S,4S)-1-(5-chloro-4-((1-methyl-2-oxoindolin-5-yl)amino)pyrimidin-2-yl)-3-fluoropiperidin-4-yl)amino)-1-methyl-1H-indazol-3-yl)piperidine-2,6-dione] | 20 to 60 | – |
| CO[C@@H]1CN(c2ncc(C#N)c(Nc3ccc4c(c3)CC(=O)N4C)n2)CC[C@H]1Nc1ccc2c(N3CCC(=O)NC3=O)nn(C)c2c1 [Example 157, 2-((3R,4R)-4-((3-(2,4-dioxotetrahydropyrimidin-1(2H)-yl)-1-methyl-1H-indazol-6-yl)amino)-3-methoxypiperidin-1-yl)-4-((1-methyl-2-oxoindolin-5-yl)amino) pyrimidine-5-carbonitrile] | 20 to 60 | – |
| CO[C@@H]1CN(c2ncc(Cl)c(Nc3ccc4c(c3)CC(=O)N4C)n2)CC[C@H]1Nc1ccc2c(C3CCC(=O)NC3=O)nn(C)c2c1 (stereo partly drawn) [Example 146, 3-(6-(((3R,4R)-1-(5-chloro-4-((1-methyl-2-oxoindolin-5-yl)amino)pyrimidin-2-yl)-3-methoxypiperidin-4-yl)amino)-1-methyl-1H-indazol-3-yl)piperidine-2,6-dione] | 20 to 60 | – |
| CN1C(=O)Cc2cc(Nc3nc(N(C)[C@H]4CCN(c5ccc6c(C7CCC(=O)NC7=O)nn(C)c6c5)C(=O)C4)ncc3Cl)ccc21 (single isomer, unassigned) [Example 128] | 20 to 60 | – |
| CCN1C(=O)Cc2cc(Nc3nc(N4CCC(Nc5ccc6c(N7CCC(=O)NC7=O)nn(C)c6c5)CC4)ncc3Cl)ccc21 [Example 144, 1-(6-((1-(5-chloro-4-((1-ethyl-2-oxoindolin-5-yl)amino)pyrimidin-2-yl)piperidin-4-yl)amino)-1-methyl-1H-indazol-3-yl)dihydropyrimidine-2,4(1H,3H)-dione] | > 60 | – |
| CC1CCN(c2ncc(Cl)c(Nc3ccc4c(c3)CC(=O)N4C)n2)CCC1Nc1ccc2c(C3CCC(=O)NC3=O)nn(C)c2c1 (single isomer, unassigned) [Example 48, 3-(6-((1-(5-chloro-4-((1-methyl-2-oxoindolin-5-yl)amino)pyrimidin-2-yl)-5-methylazepan-4-yl)amino)-1-methyl-1H-indazol-3-yl)piperidine-2,6-dione] | > 60 | – |
| C[C@@H]1CN(c2ncc(Cl)c(Nc3ccc4c(c3)CC(=O)N4CC(C)(F)F)n2)CC[C@H]1Nc1ccc2c([C@H]3CCC(=O)NC3=O)nn(C)c2c1 (single isomer, unassigned) [Example 111] | < 20 | – |
| Cc1nc(N2CC[C@@H](Nc3ccc4c(C5CCC(=O)NC5=O)nn(C)c4c3)[C@H](C)C2)nc(Nc2ccc3c(c2)CC(=O)N3C)c1Cl (stereo partly drawn) [Example 122, 3-(6-(((3R,4R)-1-(5-chloro-4-methyl-6-((1-methyl-2-oxoindolin-5-yl)amino)pyrimidin-2-yl)-3-methylpiperidin-4-yl)amino)-1-methyl-1H-indazol-3-yl)piperidine-2,6-dione] | < 20 | – |
| C[C@@H]1CN(c2ncc(Cl)c(Nc3cc4c(cc3F)N(C)C(=O)C4)n2)CC[C@H]1Nc1ccc2c([C@H]3CCC(=O)NC3=O)nn(C)c2c1 (single isomer, unassigned) [Example 93] | < 20 | – |
| Cn1nc(C2CCC(=O)NC2=O)c2ccc(NC3CCN(c4ncc(Cl)c(Nc5ccc6c(c5)CC(=O)N6)n4)CC3)cc21 (stereo not shown) [Example 63, 3-(6-((1-(5-chloro-4-((2-oxoindolin-5-yl)amino)pyrimidin-2-yl)piperidin-4-yl)amino)-1-methyl-1H-indazol-3-yl)piperidine-2,6-dione] | > 60 | – |

Now from value to compound:

| Percent BCL6 remaining at maximal degradation (Ycon) [%] | YCon (% remaining maximal effect) | SMILES |
| --- | --- | --- |
| > 60 | – | CN1C(=O)Cc2cc(Nc3nc(N4CCCN(c5ccc6c(C7CCC(=O)NC7=O)nn(C)c6c5)CC4)ncc3Cl)ccc21 (stereo not shown) [Example 32, 3-(6-(4-(5-chloro-4-((1-methyl-2-oxoindolin-5-yl)amino)pyrimidin-2-yl)-1,4-diazepan-1-yl)-1-methyl-1H-indazol-3-yl)piperidine-2,6-dione] |
| > 60 | – | C[C@H]1C[C@H](N(C)c2ccc3c(C4CCC(=O)NC4=O)nn(C)c3c2)CCN1c1ncc(Cl)c(Nc2ccc3c(c2)CC(=O)N3C)n1 (stereo partly drawn) [Example 84, 3-(6-(((2S,4R)-1-(5-chloro-4-((1-methyl-2-oxoindolin-5-yl)amino)pyrimidin-2-yl)-2-methylpiperidin-4-yl)(methyl)amino)-1-methyl-1H-indazol-3-yl)piperidine-2,6-dione] |
| > 60 | – | C[C@@H]1C[C@@H](N(C)c2ccc3c(C4CCC(=O)NC4=O)nn(C)c3c2)CCN1c1ncc(Cl)c(Nc2ccc3c(c2)CC(=O)N3C)n1 (stereo partly drawn) [Example 25, 3-(6-(((2R,4S)-1-(5-chloro-4-((1-methyl-2-oxoindolin-5-yl)amino)pyrimidin-2-yl)-2-methylpiperidin-4-yl)(methyl)amino)-1-methyl-1H-indazol-3-yl)piperidine-2,6-dione] |
| < 20 | – | C[C@H]1C[C@H](Nc2ccc3c([C@H]4CCC(=O)NC4=O)nn(C)c3c2)CCN1c1ncc(Cl)c(Nc2ccc3c(c2)CC(=O)N3C)n1 (single isomer, unassigned) [Example 82] |
| > 60 | – | C[C@@H]1CN(c2ccc3c(C4CCC(=O)NC4=O)nn(C)c3c2)C[C@H](C)N1c1ncc(Cl)c(Nc2ccc3c(c2)CC(=O)N3C)n1 (stereo partly drawn) [Example 30, 3-(6-((3R,5S)-4-(5-chloro-4-((1-methyl-2-oxoindolin-5-yl)amino)pyrimidin-2-yl)-3,5-dimethylpiperazin-1-yl)-1-methyl-1H-indazol-3-yl)piperidine-2,6-dione] |
| < 20 | – | C[C@@H]1C(=O)N(c2ccc3c(C4CCC(=O)NC4=O)nn(C)c3c2)CC[C@H]1N(C)c1ncc(Cl)c(Nc2ccc3c(c2)CC(=O)N3C)n1 (single isomer, unassigned) [Example 131] |
| 20 to 60 | – | C[C@H]1C[C@@H](Nc2ccc3c(C4CCC(=O)NC4=O)nn(C)c3c2)CCN1c1ncc(Cl)c(Nc2ccc3c(c2)CC(=O)N3C)n1 (stereo partly drawn) [Example 19, 3-(6-(((2S,4S)-1-(5-chloro-4-((1-methyl-2-oxoindolin-5-yl)amino)pyrimidin-2-yl)-2-methylpiperidin-4-yl)amino)-1-methyl-1H-indazol-3-yl)piperidine-2,6-dione] |
| – | (>60%) | CC1CN(c2ncc(Cl)c(Nc3ccc4c(c3)CC(=O)N4C)n2)CCCC1Nc1ccc2c(C3CCC(=O)NC3=O)nn(C)c2c1 (single isomer, unassigned) [Example 50, 3-(6-((1-(5-chloro-4-((1-methyl-2-oxoindolin-5-yl)amino)pyrimidin-2-yl)-3-methylazepan-4-yl)amino)-1-methyl-1H-indazol-3-yl)piperidine-2,6-dione] |
| < 20 | – | C[C@@H]1CN(c2ncc(Cl)c(Nc3ccc4c(c3)CC(=O)N4C)n2)CC[C@H]1Nc1ccc2c([C@@H]3CCC(=O)NC3=O)nn(C)c2c1 (single isomer, unassigned) [Example 72] |
| > 60 | – | C[C@@H]1C[C@H](Nc2ccc3c(C4CCC(=O)NC4=O)nn(C)c3c2)CCN1c1ncc(Cl)c(Nc2ccc3c(c2)CC(=O)N3C)n1 (stereo partly drawn) [Example 22, 3-(6-(((2R,4R)-1-(5-chloro-4-((1-methyl-2-oxoindolin-5-yl)amino)pyrimidin-2-yl)-2-methylpiperidin-4-yl)amino)-1-methyl-1H-indazol-3-yl)piperidine-2,6-dione] |
| 20 to 60 | – | C[C@H]1CN(c2ccc3c(C4CCC(=O)NC4=O)nn(C)c3c2)C(=O)C[C@H]1N(C)c1ncc(Cl)c(Nc2ccc3c(c2)CC(=O)N3C)n1 (stereo partly drawn) [Example 149, 3-(6-((4R,5S)-4-((5-chloro-4-((1-methyl-2-oxoindolin-5-yl)amino)pyrimidin-2-yl)(methyl)amino)-5-methyl-2-oxopiperidin-1-yl)-1-methyl-1H-indazol-3-yl)piperidine-2,6-dione] |
